From US20260008818A1, “CYCLIC PEPTIDE OR SALT THEREOF, AND USES THEREOF” (FUJIFILM Corporation, priority 2023, published 2026)
Bridge positions count the residues as written; N and C are the ends. Ends that are not written are not given here. COCH2 = acetyl group that carries the bridge

System: Recombinant Human FGFR1 alpha (IIIc) Fc Chimera Protein
Assay: Binding affinity of enzymatically synthesized cyclic peptide to FGFR by ELISA
Conditions: luminescence signal at reaction concentration 10 nmol/L, SEQ ID NO: 39 standardized to 1, enzyme synthesis product
Procedure: The binding affinity of the cyclic peptide to FGFR was evaluated using an ELISA method.
The binding affinity of the enzymatically synthesized cyclic peptide to FGFR was measured by evaluating the amount of the cyclic peptide bound to FGFR by ELISA.
First, 5 ng of Recombinant Human FGFR1 alpha (IIIc) Fc Chimera Protein CF (R&D systems, 658-FR-050) was immobilized in each well of a 96-well plate, and blocked with Pierce Protein-Free (PBS) Blocking Buffer (Thermo, 37572), and a cyclic peptide diluted with Can Get Signal Immunoreaction Enhancer Solution I (TOYOBO, NKB-101) was then added and reacted at room temperature for 3 hours. After washing with 0.05% Tween 20-containing phosphate buffered saline (PBS), an anti-Myc antibody (Cell Signaling, 14038S) diluted with Can Get Signal Immunoreaction Enhancer Solution II (TOYOBO, NKB-101) was added and reacted at room temperature for 2 hours. After washing with 0.05% Tween 20-containing PBS, SuperSignal ELISA Femto Substrate (Thermo, 37075) was added, and the luminescence amount was measured. The dose-response relationship was calculated from using the difference between the luminescence amount in the well in which FGFR was immobilized and the luminescence amount in the well in which FGFR was not immobilized, and the concentration of the cyclic peptide at the time of reaction, and the binding affinity to FGFR was evaluated according to the following evaluation criteria. The evaluation result preferably satisfies the evaluation criteria A, B, or C.
In a case where a value of a luminescence signal emitted by the cyclic peptide set forth in SEQ ID NO: 39 at a reaction concentration of 10 nmol/L is standardized to 1, evaluation criteria of the luminescence signal value emitted by the cyclic peptide at a reaction concentration of 10 nmol/L is as follows. • A: 0.7 or more • B: 0.5 or more and less than 0.7 • C: 0.1 or more and less than 0.5 • D: less than 0.1.

| Evaluation result of binding affinity to FGFR | Substance |
| --- | --- |
| C (0.1 or more and less than 0.5) | 308 (HCSYERLQFHGHEAPFRMK(COCH2)V; thioether 2-19 (inferred)) [compound 308] |
| C (0.1 or more and less than 0.5) | 109 (HCSYERLQFHSHEAPFRVK(COCH2)V; thioether 2-19 (inferred)) [compound 109] |
| B (0.5 or more and less than 0.7) | 51 (KCWQQLSFVGHIAPFVYK(COCH2)Y; thioether 2-18 (inferred)) [compound 51] |
| D (less than 0.1) | 36 (CRALLRGAPFHLAEK(COCH2); thioether 1-15; not fully specified; printed as (C)-RALLRGAPFHLAE-(K(acetyl))) [compound 36] |
| A (0.7 or more) | 177 (HCSYERLQFHGHPAPFRVK(COCH2)V; thioether 2-19 (inferred)) [compound 177] |
| C (0.1 or more and less than 0.5) | 282 (TCQWEQLRIGPHLAPFRSK(COCH2)R; thioether 2-19 (inferred)) [compound 282] |
| B (0.5 or more and less than 0.7) | 352 (ICINRLSQGTHFAPFWLVEYK(COCH2)N; thioether 2-21) [compound 352] |
| B (0.5 or more and less than 0.7) | 210 (HCSYERLQFHGHEAPFRVK(COCH2)G; thioether 2-19 via Ac; not fully specified) [compound 210] |
| C (0.1 or more and less than 0.5) | 104 (HCSHERLQFHGHEAPFRVK(COCH2)V; thioether 2-19 (inferred)) [compound 104] |
| A (0.7 or more) | 223 (HCSYERLQFHGHEAPFRVK(COCH2)H; thioether 2-19 (inferred)) [compound 223] |
| C (0.1 or more and less than 0.5) | 255 (RCWRQIRYGQLLAPFLVK(COCH2)Q; thioether 2-18 (inferred)) [compound 255] |
| B (0.5 or more and less than 0.7) | 259 (GCRPVVTHHPWAPFWVVTK(COCH2)E; thioether 2-19 (inferred)) [compound 259] |
| B (0.5 or more and less than 0.7) | 117 (HCSYERLQFHGHEADFRVK(COCH2)V; thioether 2-19 (inferred)) [compound 117] |
| A (0.7 or more) | 70 (ICSYERLQFHGHEAPFRVK(COCH2)V; thioether 2-19 (inferred)) [compound 70] |
| A (0.7 or more) | 326 (HCSYERLQFHGHIAPFWVK(COCH2)V; thioether 2-19 (inferred)) [compound 326] |
| A (0.7 or more) | 69 (LCSYERLQFHGHEAPFRVK(COCH2)V; thioether 2-19 (inferred)) [compound 69] |
| B (0.5 or more and less than 0.7) | 38 (WCQLVWQGHKAPYLTLK(COCH2)L; thioether 2-17) [compound 38] |
| B (0.5 or more and less than 0.7) | 233 (HK(COCH2)TWERLVFLGHIAPFWVCR; thioether 2-19 (inferred)) [compound 233] |
| A (0.7 or more) | 373 (CERLIFHGHEAPFWVK(COCH2); thioether 1-16) [compound 373] |
| B (0.5 or more and less than 0.7) | 334 (HCSYERLIFLGHIAPFWVK(COCH2)V; thioether 2-19 (inferred)) [compound 334] |
| B (0.5 or more and less than 0.7) | 281 (FCTIQQLILVNHRAPFWVK(COCH2)T; thioether 2-19 (inferred)) [compound 281] |
| B (0.5 or more and less than 0.7) | 52 (SCYERVVLFGWQAPYWAK(COCH2)P; thioether 2-18 (inferred)) [compound 52] |
| B (0.5 or more and less than 0.7) | 336 (HCTYERLIFLGHIAPFWVK(COCH2)V; thioether 2-19 (inferred)) [compound 336] |
| A (0.7 or more) | 187 (HCSYERLQFHGHTAPFRVK(COCH2)V; thioether 2-19 via Ac) [compound 187] |
| C (0.1 or more and less than 0.5) | 246 (PCTYRQVVVHGWYAPFISK(COCH2)V; thioether 2-19 (inferred)) [compound 246] |

| Evaluation result of binding affinity to FGFR | Substance |
| --- | --- |
| A (0.7 or more) | 168 (HCSYERLQFYGHEAPFRVK(COCH2)V; thioether 2-19 (inferred)) [compound 168] |
| A (0.7 or more) | 154 (HCSYERLTFHGHEAPFRVK(COCH2)V; thioether 2-19 (inferred)) [compound 154] |
| C (0.1 or more and less than 0.5) | 362 (WCHYAPFWVLNEGQLK(COCH2)V; thioether 2-16) [compound 362] |
| B (0.5 or more and less than 0.7) | 64 (HCSYERLQFHGHEAPFAVK(COCH2)V; thioether 2-19 (inferred)) [compound 64] |
| A (0.7 or more) | 218 (HCSYERLQFHGHEAPFRVK(COCH2)S; thioether 2-19 via Ac; not fully specified) [compound 218] |
| C (0.1 or more and less than 0.5) | 342 (NCIPFWWQQHWWQYPVRVVK(COCH2)T; thioether 2-20) [compound 342] |
| C (0.1 or more and less than 0.5) | 312 (HCVWERLIFLGHIAPFWVK(COCH2)R; thioether 2-19 (inferred)) [compound 312] |
| C (0.1 or more and less than 0.5) | 267 (ACRWAQLQFLSWGAPFLVK(COCH2)T; thioether 2-19 (inferred)) [compound 267] |
| B (0.5 or more and less than 0.7) | 226 (HK(COCH2)TWERLIFLGHIAPFWVCR; thioether 2-19 (inferred)) [compound 226] |
| C (0.1 or more and less than 0.5) | 299 (HCSYEMLQFHGHEAPFRVK(COCH2)V; thioether 2-19 (inferred)) [compound 299] |
| D (less than 0.1) | 34 (CRALLRGAPFHLAEC; disulfide 1-15) [compound 34] |
| C (0.1 or more and less than 0.5) | 207 (HCSYERLQFHGHEAPFRSK(COCH2)V; thioether 2-19 via Ac; not fully specified) [compound 207] |
| C (0.1 or more and less than 0.5) | 306 (HCSYERLQFHGHEAMFRVK(COCH2)V; thioether 2-19 (inferred)) [compound 306] |
| C (0.1 or more and less than 0.5) | 118 (HCSYERLQFHGHEAHFRVK(COCH2)V; thioether 2-19 (inferred)) [compound 118] |
| C (0.1 or more and less than 0.5) | 351 (WCWQAPFNIVVNRKVSVLIVK(COCH2)G; thioether 2-21) [compound 351] |
| C (0.1 or more and less than 0.5) | 291 (HCSYERLQFHGHEAKFRVK(COCH2)V; thioether 2-19 (inferred)) [compound 291] |
| C (0.1 or more and less than 0.5) | 107 (HCSYERLQFHNHEAPFRVK(COCH2)V; thioether 2-19 (inferred)) [compound 107] |
| C (0.1 or more and less than 0.5) | 339 (YCITQHPWAPFWVVNPWDNK(COCH2)L; thioether 2-20 (inferred)) [compound 339] |
| A (0.7 or more) | 39 (HCSYERLQFHGHEAPFRVKV; also: cyclic peptide, ring not given here) [compound 39] |
| B (0.5 or more and less than 0.7) | 126 (HCSYYRLQFHGHEAPFRVK(COCH2)V; thioether 2-19 (inferred)) [compound 126] |
| C (0.1 or more and less than 0.5) | 316 (HCTWERLVFLGHIAPFWVK(COCH2)R; thioether 2-19 (inferred)) [compound 316] |
| A (0.7 or more) | 329 (HCSYERLRFHGHIAPFWVK(COCH2)V; thioether 2-19 (inferred)) [compound 329] |
| C (0.1 or more and less than 0.5) | 293 (HCSYERLQFHGHEAPFRKK(COCH2)V; thioether 2-19 (inferred)) [compound 293] |
| C (0.1 or more and less than 0.5) | 320 (HCTWERLIFLGHLAPFWVK(COCH2)R; thioether 2-19 (inferred)) [compound 320] |
| C (0.1 or more and less than 0.5) | 350 (LCSITRIQLFGYHAPFWHVVK(COCH2)S; thioether 2-21) [compound 350] |
